Experimental data reported in ChEMBL document CHEMBL3507680, “University of Dundee, Gates Library screen for HepG2 cell viability”.

Experiment: Human HepG2 cell viability assay in 384 well format
Type: toxicity, cell-based
Set-up: dose 125 nL, time 70.5 hour; concentration not given beside the values
Conditions: HepG2 cells, read-out: Inhibition

SMILES | cytotoxicity at 70.5 h
O=C1COC2(CCN(C(=O)c3ccco3)CC2)CN1Cc1cccnc1 | -8.01%
CC(C)(C)C(=O)N1CCC(c2cnc(-c3cn[nH]c3)cn2)CC1 | -4.2%
CCOC(=O)N1CCC(C(=O)c2cc(F)ccc2F)CC1 | -8.51%
Cc1cccc(N2CC3(CCN(Cc4nccn4C)C3)CC2=O)c1 (centres undefined) | -8.56%
CN(CC1CCOC1)c1ccc(Br)cn1 (centres undefined) | 29.9%
O=C(c1c[nH]c2ccccc2c1=O)N1CCSCC1 | -6.3%
CC(C)(C)c1cnc(CN2CCC(NC(=O)NC3CCCCC3)CC2)o1 | 1.07%
O=C1O[C@@H]2CN(C3CCOCC3)C[C@@H]2N1CCc1cccc(Cl)c1 | -1.7%
CNc1nccc(-c2cnc3sc(C)c(C)n3c2=O)n1 | 0.0839%
CCOCCn1c(=O)[nH]c2cc(C(=O)N(C)Cc3cnn(C)c3)ccc21 | -4.48%
Cc1nn(-c2ccccc2)nc1C(=O)N1CCCC1c1cnn(C)c1 (centres undefined) | -18.4%
CCC1CN(C(=O)c2cncc(C)c2)CCC(=O)N1Cc1ccccc1 (centres undefined) | -3.22%
Cn1c(Cn2ccnc2)nnc1C1CCN(C(=O)c2cccnc2)CC1 | -10.4%
CCN(C)S(=O)(=O)N1CCC(C(O)c2ccc(F)cc2)CC1 (centres undefined) | -2.3%
CCCN1CCN(Cc2cc(Cl)cc(Cl)c2)[C@H]2CS(=O)(=O)C[C@H]21 | 10.3%
c1nc2c(c(-c3ccsc3)n1)CCN(Cc1ccoc1)CC2 | 19.3%
COc1ccc(Cn2ccnc2)cc1F | -10.7%
CCOCCOC(C)C(=O)Nc1ccc2[nH]c(C)cc2c1 (centres undefined) | -8.04%
Cc1ccccc1CNC(=O)Cn1nc(-c2ccc(F)cc2)oc1=O | -9.26%
CN(c1ncc(C(=O)Nc2ccccc2)c(N)n1)C1CCCCC1 | -0.75%
CN(C)c1ccc(CCNC(=O)NCc2ccc(N(C)C)nc2)cc1 | -3.36%
CN(C)S(=O)(=O)Nc1ccc(-n2nccc2C(F)(F)F)cc1 | 6.87%
Oc1cccc(CN2C[C@H]3CC[C@@H]2CN(Cc2cccnc2)C3)c1 | 3.01%

SMILES | cytotoxicity at 70.5 h
Cc1cccc(OC2(C(=O)O)CCN(C(=O)CCc3ccco3)CC2)c1 | 30.3%
O=C(NCCc1ccn(-c2ccccc2)n1)N1CCSCC1 | 22.7%
Cc1ccc(C(C(=O)NCCc2nc(C)cc(C)n2)N(C)C)cc1 (centres undefined) | -4.39%
CCN(CC1CCOC1)C(=O)c1cc(Cl)c2c(c1)OCO2 (centres undefined) | 26.7%
Cc1c(CS(C)(=O)=O)cccc1NC(=O)CC1CCCC1 | -7.53%
CCc1nnc(CN(C)C(=O)C(CC)n2c(CC)nc3ccccc32)o1 (centres undefined) | 3.98%
CC(C)c1ncncc1C(=O)NCCN1CCOCC1 | 1.2%
COCCn1c(=O)n(C)c(=O)c2ccc(C3CCC(CN)CC3)nc21 (centres undefined) | -6.32%
CNc1ccnc(N2C[C@@H](C)[C@](O)(C3CC3)C2)n1 | -3.1%
Cn1c(CN2CCOCC2)cc(=O)c(O)c1CN1CCOCC1 | -12.3%
O=C(CCn1cc(Cl)cn1)Nc1ncccn1 | -4.36%
NCCC(Cc1ccccc1)c1ccco1 (centres undefined) | 35%
Cc1nnc(C(NS(=O)(=O)c2cc(C#N)ccc2C)C(C)C)[nH]1 (centres undefined) | -5.93%
CCc1noc(C2CCCCN2C(=O)c2cc(C)on2)n1 (centres undefined) | -6.42%
Cn1cccc1C1CCCN1Cc1noc(C(C)(C)C)n1 (centres undefined) | -21.2%
Cc1nc(C2CCCN2C(=O)c2ccc(F)cc2)ncc1C(N)=O (centres undefined) | -3.31%
Cn1cc(CN2CC[C@]3(C[C@H](Oc4ccccn4)CO3)C2)cn1 | -6.32%
CCCS(=O)(=O)CC(=O)NC(C)c1cccc(-n2cccn2)c1 (centres undefined) | 10.5%
CN(CCO)Cc1nnc(C2CCN(C[C@H]3[C@@H]4CNC[C@@H]43)CC2)n1C | 9.78%
O=C(Cc1ccncc1)N1CCC2(CC1)CC(c1ccccc1)CO2 (centres undefined) | 19.4%
Cc1nc(-c2ccccc2)n(CC(=O)NC(C)C2CC2)n1 (centres undefined) | -5.73%
Cc1cccc(C(=O)NCc2cccnc2N(C)C)n1 | 1.42%
Cc1cc(C(=O)N2CCc3c(ncnc3N3CCOCC3)C2)[nH]n1 | -1.64%

SMILES | cytotoxicity at 70.5 h
Cc1ccccc1NC(=O)CNC(C)COc1ccccc1 (centres undefined) | -9.44%
Cc1noc([C@H]2C[C@H]3OCC[C@H]3N(Cc3cccs3)C2)n1 | -3.05%
Cc1nn(-c2ccccc2)c(C)c1-c1ccnc(N2CCCNCC2)n1 | -2.54%
O=C(C[S+]([O-])Cc1cccc(C(F)(F)F)c1)NC1CCCC1 (centres undefined) | -8.39%
CCc1nc(C2CCCN(C(=O)c3ccccc3O)C2)no1 (centres undefined) | 3.74%
COC(=O)N1CCN(Cc2ccccc2Cl)CC1 | -1.89%
COCCOc1ccc(NC(=O)C2CC(=O)N(C)C2)cn1 (centres undefined) | -4.68%
CC(C)(C)n1cc(C(=O)N2CCCN(Cc3cccs3)CC2)cn1 | -2.48%
CCc1nc(C)cn1C(=O)Nc1ccccc1 | 2.98%
COc1ccc(OC)c(C(C)NS(=O)(=O)c2cnn(C)c2)c1 (centres undefined) | -12%
O=C1NCCO[C@H]2CN(C(=O)Cc3csc4ccccc34)CC[C@@H]12 | -8.16%
CN1Cc2[nH]nc(COCC3CC3)c2C1 | -11.3%
COc1ccc(C2(C(=O)NC3CCc4nccn4C3)CCCC2)cc1 (centres undefined) | -3%
COCCN1CCOCC12CCN(C(=O)c1ccncc1)CC2 | -9.1%
Cc1ccc(C)c(S(=O)(=O)NC(=O)c2ccc(C)[nH]c2=O)c1 | -4.64%
O=C(c1cccnc1N1CCOCC1)N1CCCC(n2ccnc2)C1 (centres undefined) | -6.03%
CC(C)c1nc(CC(=O)N2CCN(C)CC2c2ccccc2)cs1 (centres undefined) | 12.9%
CCN(CC1CCOC1)S(=O)(=O)Cc1cc(Cl)ccc1OC (centres undefined) | -14.8%
CSc1ncc(C(=O)NCc2cc3n(n2)CCCN(CC(C)C)C3)cn1 | 5.43%
O=C(NCC(O)c1cccs1)c1sccc1OC(F)F (centres undefined) | -3.63%
Cc1ccc(C(=O)N2CCN(c3ncnc4nc(N)ccc34)CC2)o1 | -7.65%
CC(C)=CCN1C[C@H]2CC[C@@H]1CN(C(=O)CSc1ccncc1)C2 | -0.143%
CCOc1no[n+]([O-])c1-c1ccccc1 | -3.07%

SMILES | cytotoxicity at 70.5 h
CC(=O)N1N=C(Cc2ccccc2)OC1C(=O)NCC(C)C (centres undefined) | -1.89%
CCC(CC)(CCO)CNC(=O)c1ccon1 | -8.6%
O=C(NC(C1CC1)C1CC1)c1cccc[n+]1[O-] | -2.48%
CN1CCCN(c2ccc(F)cc2CNC(=O)c2ccsc2)CC1 | -4.69%
COC1CCN(CCNC(=O)C2CCCCC2)CC1 | -7.3%
Cc1cc(NCCCc2c(C)noc2C)nc(N)n1 | -10.4%
Cc1cccc(CN(Cc2cccnc2)C2CC(C)(C)NC(C)(C)C2)n1 | -1.41%
CN(C)c1nc(CNC(=O)NC2COc3ccccc32)cs1 (centres undefined) | 2.4%
O=C(CNCCn1cccn1)NCC1(c2ccccc2)CC1 | -4.79%
CCCc1nc2c(c(C)c(C)n2CCN(C)C)c(N)c1CC | 3.64%
COCCN1CCC(NCc2ccc(Cl)cc2)C1 (centres undefined) | -11.1%
Cc1cnn(C2CCCN(C(=O)Cc3ccc4c(c3)CCO4)C2)c1 (centres undefined) | 13.9%
COc1nccnc1-c1cc(NC2CCCC2)nc2[nH]ccc12 | -16.1%
O=C1CC[C@@H]2[C@@H](CCN2C(=O)c2ccsc2)N1Cc1ccncc1 | 0.223%
CC(=O)c1cc2ncc(C(=O)NC3CCCC3)cc2[nH]1 | -3.81%
CCn1cnnc1CNC(=O)c1cc(Cl)ccc1I | -10.9%
COCc1ncn2c1CN(C(=O)Nc1cccc(OC)c1)CC2 | 19.8%
Nc1ncccc1CN1C[C@@H]2CC[C@H](C1)N(CC1CC1)C2=O | 28%
c1cn(CCn2cnnc2)c(-c2cc3n(n2)CCCNC3)n1 | -5.64%
CCCS(=O)(=O)NCC1OCCc2cn(CC3CCOCC3)nc21 (centres undefined) | 30.2%
CC(C)(CO)CCCNC(=O)NC1(c2ccccc2F)CC1 | 3.5%
CC(=O)N[C@@H]1CN(C2CCN(c3ccccc3F)CC2)C[C@H]1C(C)C | -10.5%
Cc1nnc(NCCC(=O)NCc2ccccc2)c(C#N)c1C | -9.42%

SMILES | cytotoxicity at 70.5 h
OC1(CNc2cc(C(F)(F)F)nc3ccccc23)CCOCC1 | -4.81%
CC(=O)N1CCCC(c2ccc(C(=O)NC3CCCC3)cn2)C1 (centres undefined) | -5.66%
NC(=O)NC(=O)CCN1CCCC1c1nc(C2CCCCC2)co1 (centres undefined) | 13.4%
CC(C)N1CCC(C(=O)N(C)C(C)c2ccon2)CC1 (centres undefined) | -0.598%
N#Cc1ccc(F)c(CNc2ccc(F)cc2OCCO)c1 | 16.6%
CC/C=C(\C)CN1CCC(CNC(=O)c2ccc(=O)[nH]c2)CC1 | -6.38%
CN1CCCC2(CC1)CCN(C(=O)CCc1ccccc1O)CC2 | 6.16%
C[C@@H]1CN(S(=O)(=O)N2CCCC2)CC[C@@]1(O)C1CCOCC1 | -14%
O=C(c1ccc(NCc2ccco2)nc1)N1CCc2ccccc21 | -3.94%
CCOC(=O)[C@H]1[C@@H](O)C(=O)N(C)C12CCN(C(=O)OC)CC2 | 7.43%
CS(=O)(=O)N1C[C@@H]2CC[C@H](C1)N(C(=O)CCn1cnc3ccccc31)C2 | 18.3%
Cc1nc(C(=O)N2CCc3[nH]nc(Nc4ccccc4)c3C2)co1 | -1.67%
O=C(CN1CCCC(c2noc(C3CC3)n2)C1)N1CCCC1 (centres undefined) | 4.7%
CCNC(=O)[C@@H]1C[C@H](NC(=O)c2cncnc2C)CN1CCCSC | -1.96%
c1ccc(-c2nc3c(c(NCc4nnc5n4CCC5)n2)CCNC3)cc1 | -7.92%
CCc1nc(CN2CCCN(C(=O)c3cn[nH]c3CC)CC2)cs1 | 12.4%
COc1ccc2[nH]nc(CN3CCC(C(C)N(C)C)CC3)c2c1 (centres undefined) | 1.23%
COc1ccc(CCC(=O)N2CCNCC2C(=O)N2CCCC2)cc1 (centres undefined) | -6.16%
CCc1nnc(C2Cc3ccccc3CN2Cc2ncc(Cl)n2C)o1 (centres undefined) | -6.23%
Cn1cc(CN2C[C@@H]3COC[C@]3(COCC3CC3)C2)cn1 | -5.3%
Cn1c2ncccc2c(=O)n1CC(=O)NCCC1=CCCCC1 | -2.08%
Cc1ccc(C)n1-c1ccc(C(=O)NCCNc2ncccn2)cc1 | -7.02%
